The values that follow come from ChEMBL document CHEMBL1201862, “PubChem BioAssay data set” (2004).

Test systems include SNB-19; SK-OV-3; HL-60; UACC-257; CAKI-1; NCI-H460; HOP-62; NCI-H522; HCC 2998; MDA-MB-231; BT-549; LOX IMVI; K562; OVCAR-3; SK-MEL-28; NCI-H23; NCI-H226; SR; TK-10; HCT-15.
Experiment in all cases: inhibition of tumour cell growth, NCI panel, 48 h

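Protocol summary: plate cells (96-well), add compound at 5 concentrations, incubate 48 h, interpolate endpoints linearly. GI50 marks 50% less growth.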 Calls of active or inactive are those of the source. Rule as the data show it: active = GI50 up to about 1.1 µM and inactive = higher.

Take `NC(=O)NO` [HYDROXYUREA]: the GI50 was 1580 µM (inactive) with SNB-19; 1680 µM (inactive) in the assay with SK-OV-3; 18.4 µM (inactive) in the assay on HL-60; 1810 µM (inactive) in the assay on UACC-257; 270 µM (inactive) with CAKI-1; 344 µM (inactive) with NCI-H460. Moreover, the GI50 in the assay on HOP-62 is 904 µM (inactive); in the assay with NCI-H522, 729 µM (inactive); in the assay with HCC 2998, 679 µM (inactive); with MDA-MB-231, > 1410 µM (inactive); in the assay on BT-549, 1660 µM (inactive); in the assay with LOX IMVI it was 700 µM (inactive). The GI50 with K562 was 877 µM (inactive); in the assay on OVCAR-3 it was 1240 µM (inactive); in the assay on SK-MEL-28, 1920 µM (inactive); in the assay on NCI-H23, 710 µM (inactive); in the assay on NCI-H226, 773 µM (inactive); in the assay with SR, 217 µM (inactive). For the same compound, the GI50 is 1980 µM (inactive) with TK-10 and 871 µM in the assay on HCT-15.

With `O=C(O)CCc1nc2c(n1Cc1ccccc1)C(=O)c1ccccc1C2=O`, the GI50 with SNB-19 was > 100 µM (inactive); in the assay on SK-OV-3, 69.3 µM (inactive); in the assay with HL-60, 64 µM (inactive); in the assay with UACC-257, 33.7 µM (inactive); in the assay with CAKI-1, > 100 µM (inactive); in the assay with NCI-H460, 37.9 µM (inactive). Besides, the GI50 in the assay with HOP-62 is > 100 µM (inactive); with NCI-H522, 24.3 µM (inactive); in the assay on HCC 2998, > 100 µM (inactive); in the assay with MDA-MB-231 it was 33.5 µM (inactive); in the assay on BT-549, > 100 µM (inactive); in the assay with LOX IMVI it was 27.2 µM (inactive). The GI50 in the assay on K562 was 57.3 µM (inactive); in the assay on OVCAR-3, 27.9 µM (inactive); with SK-MEL-28, > 100 µM (inactive); in the assay on NCI-H23 it was 30.3 µM (inactive); with NCI-H226 it was > 100 µM (inactive); in the assay on SR it was 51.4 µM (inactive). In addition, the GI50 was 34.1 µM (inactive) in the assay with TK-10 and 48.8 µM in the assay on HCT-15.

On to `Clc1ccc2ns[s+]c2c1`, for which the GI50 is 29.2 µM (inactive) with SNB-19; > 100 µM (inactive) in the assay with SK-OV-3; 1.09 µM (active) with HL-60; 14.5 µM (inactive) in the assay with UACC-257; 1.63 µM (inactive) in the assay with CAKI-1; 5.83 µM (inactive) in the assay on NCI-H460. The GI50 in the assay on HOP-62 is 4.32 µM (inactive); in the assay on NCI-H522 it was 11.1 µM (inactive); with HCC 2998, 17.5 µM (inactive); with MDA-MB-231, 25.3 µM (inactive); in the assay on BT-549 it was 16.3 µM (inactive); in the assay with LOX IMVI, 1.29 µM (inactive). Further, the GI50 in the assay with K562 is 0.0611 µM (active); in the assay with OVCAR-3 it was 31.6 µM (inactive); with SK-MEL-28, 17.7 µM (inactive); in the assay on NCI-H23, 11.7 µM (inactive); with NCI-H226, > 89.7 µM (inactive); in the assay on SR, 1.34 µM (inactive). The GI50 in the assay with TK-10 was > 25.6 µM (inactive); with HCT-15, 0.33 µM.

`NC(Cc1c[nH]c(I)n1)C(=O)O` (stereo not given): the GI50 in the assay with SNB-19 is > 100 µM (inactive); with SK-OV-3, > 100 µM (inactive); in the assay with HL-60, 2.27 µM (inactive); in the assay on UACC-257, 41.1 µM (inactive); with CAKI-1, 29.3 µM (inactive); in the assay with NCI-H460 it was > 100 µM (inactive). In addition, the GI50 is > 100 µM (inactive) in the assay with HOP-62; 24.3 µM (inactive) in the assay with NCI-H522; 34.9 µM (inactive) in the assay on HCC 2998; > 100 µM (inactive) with MDA-MB-231; 43.4 µM (inactive) with BT-549; > 100 µM (inactive) in the assay on LOX IMVI. For the same compound, the GI50 with K562 is 53.6 µM (inactive); in the assay with OVCAR-3, 32.4 µM (inactive); in the assay with SK-MEL-28 it was 74.1 µM (inactive); in the assay on NCI-H23 it was 81.3 µM (inactive); in the assay on NCI-H226, > 100 µM (inactive); in the assay on SR it was 34.4 µM (inactive). Besides, the GI50 with TK-10 was > 100 µM (inactive); in the assay with HCT-15, 46.2 µM.

As for `COC1CC(O[C@H]2CC[C@@]3(C)[C@@H](CC[C@]4(O)[C@@H]3CC[C@]3(C)[C@@H](C(C)=O)[C@H](OC(=O)CC(C)C)[C@@H](OC(=O)c5ccccc5)[C@@]34O)C2)OC(C)C1OC1CC(OC)C(OC2OC(C)C(O)C(OC)C2O)C(C)O1` (stereo not given in full), the GI50 in the assay on SNB-19 is > 25 µM (inactive); with SK-OV-3, > 25 µM (inactive); in the assay with HL-60, 7.19 µM (inactive); with UACC-257, > 25 µM (inactive); in the assay with CAKI-1, 17.7 µM (inactive); with NCI-H460, 9.53 µM (inactive). The GI50 with HOP-62 was 16 µM (inactive); in the assay on NCI-H522, 13.1 µM (inactive); in the assay with HCC 2998 it was 9.2 µM (inactive); in the assay on MDA-MB-231, 18.4 µM (inactive); in the assay on BT-549, > 25 µM (inactive); in the assay with LOX IMVI, 15.9 µM (inactive). Also, the GI50 in the assay with K562 was 11 µM (inactive); in the assay with OVCAR-3, 11.8 µM (inactive); in the assay with SK-MEL-28 it was > 25 µM (inactive); with NCI-H23, > 25 µM (inactive); in the assay with NCI-H226 it was 13.6 µM (inactive); with SR, 11.3 µM (inactive). Also, the values for the GI50 in the assay with TK-10 and in the assay on HCT-15 were 18.3 µM (inactive) and 9.95 µM, respectively.
